Reference: patent publication US6872720B2 (dated 2005)

Compound | melting point
CCn1ncnc1COc1nn2c(-c3ccccc3)nnc(C)c2c1C1CCCC1 | 112 °C
Cc1nnc(-c2ccccc2F)n2nc(OCc3ncn(C)n3)c(-c3ccsc3)c12 | 214 to 217 °C
Cc1nnc(-c2ccccc2F)n2nc(OCc3ncnn3C)c(C3CCCC3)c12 | 123 °C
Cc1nnc(-c2ccc(F)cc2)n2nc(OCc3ncnn3C)c(-c3ccsc3)c12 | 171 to 177 °C
Cc1nnc(-c2ccccc2)n2nc(OCc3ncnn3C)c(C3CCCC3)c12 | 159 °C

Now from value to compound:

melting point | Compound
105 °C | CCn1ncnc1COc1nn2c(-c3ccccc3F)nnc(C)c2c1C1CCCC1
150 to 153 °C | Cc1nnc(-c2ccccc2F)n2nc(OCc3ncnn3C)c(-c3ccoc3)c12
109 °C | CCn1ncnc1COc1nn2c(-c3cc(F)ccc3F)nnc(C)c2c1C(C)(C)C
124 to 129 °C | Cc1nnc(-c2ccccc2F)n2nc(OCc3ncnn3C)c(-c3ccsc3)c12
144 to 146 °C | Cc1nnc(-c2ccc(F)cc2F)n2nc(OCc3ncnn3C)c(-c3ccsc3)c12
